The source of these data is patent US10087194B2, “Podophyllotoxin derivatives and their use” (California Pacific Medical Center, priority 2015, dated 2018).

Where two headings read alike, the source gives them in different places.

A short description of data set [1]: Toxicity study (MTD) in normal mice. The conditions noted are these: single i.p. injection; C3H female normal mice; checked daily for 40 days (MTD40).
Data set [2] deals with HCT116 human colon cancer xenograft. Briefly: Subcutaneous HCT116 human colon cancer xenograft model. The conditions noted are these: for TGI: HCT116, day 29. It is filed as in vivo, Mus Musculus. As for the experimental part:
Each mouse was inoculated subcutaneously with 5×10^6 HCT116 tumor cells in 0.1 ml PBS for tumor development. Treatments were started when the tumor volume reached 100 mm^3. […] Body weight and tumor volume were measured twice a week.
Background: Xenograft models place foreign cells or tissue in a host animal.

The nature of the next data set: Rat MTD study. It is filed as in vivo, Sprague-Dawley rats. As for the experimental part:
In the rat MTD study, Sprague-Dawley rats were dosed with 801 HCl at a concentration of 6 mg/ml via intravenous infusion or slow intravenous injection. The MTD of 801 in normal rats was 120 mg/kg/day. In the 7-day repeating dose study, the rats were administered with […] via BID slow IV injection for 7 days.

Data set [3] can be described thus: Toxicity studies in Cynomolgus monkeys (MTD). In kind it is in vivo.
In data set [4] the test system is K562 human chronic myeloid leukemia xenograft. Briefly: Subcutaneous K562 human chronic myeloid leukemia xenograft model.
The test system of data set [5] is COLO205 human colon cancer xenograft. The experiment in a line: Subcutaneous COLO205 human colon cancer xenograft model. In kind it is in vivo, Mus Musculus. As for the experimental part: Each mouse was inoculated subcutaneously with 5×10^6 COLO205 tumor cells in 0.1 ml PBS for tumor development. Treatments were started when the tumor volume reached 120 mm^3. […] Body weight and tumor volume were measured twice a week.

In data set [6] the test system is H23 Human Non-small Cell Lung Cancer Cells. Briefly: Colony formation assay, H23. It is filed as cell-based. The note with it: read-out: IC50 (H23). As for the experimental part: (§1) Cancer cells were plated in 60 mm Petri dishes containing 2.7 ml of medium (modified McCoy's 5a medium containing 10% fetal bovine serum and 100 units/ml penicillin and 100 ug/ml streptomycin). The cells were incubated in a CO2 incubator at 37 degree C. for 5 hours for attachment to the bottom of Petri dishes. Drugs were made up fresh in medium at ten times the final concentration, and then 0.3 ml of this stock solution was added to the 2.7 ml of medium in the dish. The cells were then incubated with drugs for 72 hours at 37 degree C. At the end of incubation the drug-containing media were decanted, the dishes were rinsed with 4 ml of Hank's Balance Salt Solution (HBSS), 5 ml of fresh medium was added, and the dishes were returned to the incubator for colony formation. The cell colonies were counted using colony counter after incubation for 7 days (HCT116 cell line), 14 days (VM46 cell line) and 15 days (H23 cell line). Cell survival (%) was calculated from 3 repeated dishes for each drug concentration and the mean values of IC50 (the drug concentration producing 50% inhibition of colony formation) were determined for each tested compound.

In data set [7] the test system is VM46 Human Colon Cancer Cells Overexpressing Multi-drug Resistant Gene 1. Briefly: Colony formation assay, VM46. In kind it is cell-based. The conditions noted are these: read-out: IC50 (VM46). As for the experimental part:
as §1

Data set [8] concerns HCT116 Human Colon Cancer Cells. Briefly: Colony formation assay, HCT116. In kind it is cell-based. How it is done:
as §1

Data set [9] deals with HCT116 human colon cancer xenografts. Briefly: Preliminary in vivo efficacy, HCT116 xenografts in nude mice. On the set-up: species or system nude mice (nu/nu genotype). The note with it: single i.p. injection at i.p. MTD doses. How it is done: In vivo anticancer efficacy study was performed on nude mice (nu/nu genotype) bearing HCT116 human colon cancer xenografts. These human tumors grew exponentially following implantation into the flanks of the mice and reached an average tumor volume of 79.85 cu. mm. Treatment was initiated at that time, with the first day of treatment designated as day 0 for all calculations and plots. The 6 mice were injected i.p. with each of four Neovia drug solutions (5% alcohol, 5% Cremophor EL, and 90% saline, 0.5 ml/20 g, single injection). Drug doses (i.p. MTD doses) were 120 mg/kg for Neovia-1, 300 mg/kg for Neovia-2, 120 mg/kg for Neovia-3, and 180 mg/kg for Neovia-4. Control group of mice was treated with vehicle alone. After treatment, tumor sizes were measured by caliper every other day. The measurement of the tumor diameters (d1, d2) in two orthogonal directions was used to calculate the tumor volume (tumor volume=π/6 {(d1+d2)/2}3) using the approximation that the tumors are spherical. Each tumor growth curve for each mouse was plotted. The time (days) required to grow the tumor to the size of 800 cu. mm after various treatments was calculated as tumor growth delay indexes for evaluating the treatment effects. Survival times after treatment was also observed and recorded.

The next data set in a line: in vivo. The conditions noted are these: female, C3H, mouse, ip.
The mark [10] stands for this setting: Homo sapiens, drugs 72 hours, colonies counted after 15 days.
[11] abbreviates: Homo sapiens, drugs 72 hours, colonies counted after 14 days.
Where [12] appears, read: Homo sapiens, HCT-116, drugs 72 hours, colonies counted after 7 days, read-out: IC50 (HCT116).

Regarding `CCC1(OC(=O)COc2ccc(C(=O)OC3c4cc5c(cc4C(c4cc(OC)c(OC)c(OC)c4)C4C(=O)OCC34)OCO5)cc2)C(=O)OCc2c1cc1n(c2=O)Cc2cc3cc(OC(=O)N4CCC(N5CCCCC5)CC4)ccc3nc2-1.Cl` (centres unmarked) [Compound 801-HCl], the “MTD Values” in data set [1] turned out to be 300 mg/kg. For the same compound, the TGI in [2] (125 mg/kg i.p. q3d x 3) worked out at 93%; in data set [5] (125 mg/kg i.p. q3d x 3, day 29) it was 70%. In addition, the MTD in “Rat MTD study” (normal Sprague-Dawley rats, 6 mg/ml via intravenous infusion or slow intravenous injection) worked out at 120 mg/kg/day; in data set [3] (intravenous infusion twice daily with a 5-hour interval), 60 mg/kg/day. Besides, the “MTD for repeating dosing” value in data set [3] (5-day repeat dose, intravenous infusion) is recorded as 30 mg/kg/day. The “Mean Tumor Volume” value in data set [4] (300 mg/kg ip Days 8, 11, 14, Day 8) is recorded as 159 ± 16 mm^3; in data set [4] (300 mg/kg ip Days 8, 11, 14, Day 11) it was 221 ± 27 mm^3; in data set [4] (300 mg/kg ip Days 8, 11, 14, Day 14), 164 ± 16 mm^3; in data set [4] (300 mg/kg ip Days 8, 11, 14, Day 18), 47 ± 7 mm^3; in data set [4] (300 mg/kg ip Days 8, 11, 14, Day 21) it was 39 ± 6 mm^3; in data set [4] (300 mg/kg ip Days 8, 11, 14, Day 25) it was 74 ± 12 mm^3. For the same compound, the “Mean Tumor Volume” value in data set [4] (300 mg/kg ip Days 8, 11, 14, Day 28) is 95 ± 19 mm^3. Besides, the “maximum BW loss” value in data set [4] (300 mg/kg ip, next day after the 2nd dosing) was 7.7%. Moreover, in data set [4] (K562, 300 mg/kg ip Days 8, 11, 14), the “TGI (Day 25)” value came to 98%. Moreover, the “CR ratio (ratio of complete regression)” value in [4] (K562, 300 mg/kg ip Days 8, 11, 14, by Day 21) was 3/8.

Turning to `CCC1(OC(=O)COc2ccc(C(=O)OC3c4cc5c(cc4C(c4cc(OC)c(OC)c(OC)c4)[C@H]4C(=O)OC[C@@H]34)OCO5)cc2)C(=O)OCc2c1cc1n(c2=O)Cc2cc3c(CN(C)C)c(O)ccc3nc2-1` (some centres unmarked) [Compound N1], the IC50 in data set [6] (setting [10]) worked out at 7.05 nM; in data set [7] (setting [11]), 8 nM; in [8] (setting [12]) it was 24.2 nM.

Take `CCC1(OC(=O)COc2ccc(C(=O)OC3c4cc5c(cc4C(c4cc(OC)c(OC)c(OC)c4)C4C(=O)OCC34)OCO5)cc2)C(=O)OCc2c1cc1n(c2=O)Cc2cc3cc(OC(=O)N4CCC(N5CCCCC5)CC4)ccc3nc2-1` (centres unmarked) [Compound N2]: the “MTD Values” in [1] is 300 mg/kg. The IC50 in [6] (drugs 72 hours, colonies counted after 15 days) was 462 nM; in [7] (drugs 72 hours, colonies counted after 14 days), about 520 nM; in data set [8] (drugs 72 hours, colonies counted after 7 days, read-out: IC50 (HCT116)) it was over 500 nM. Further, the “MTD for repeating dosing” value in “Rat MTD study” (rats, BID slow IV injection for 7 days) is on record as 60 mg/kg/day. Further, the “inhibiting the growth of HCT116 human colon cancer xenografts” value in [9] is “most promising candidate drug against HCT116 human colon cancer among all 4 compounds”.

As to `CCc1c2c(nc3ccc(OC(=O)N4CCC(N5CCCCC5)CC4)cc13)-c1cc3c(c(=O)n1C2)COC(=O)C3(CC)OC(=O)COc1ccc(C(=O)OC2c3cc4c(cc3C(c3cc(OC)c(OC)c(OC)c3)[C@H]3C(=O)OC[C@@H]23)OCO4)cc1` (some centres unmarked) [Compound N3], the IC50 in [6] (Homo sapiens) amounted to 200 nM; in data set [7] (Homo sapiens) it was 300 nM; in [8] (Homo sapiens, HCT-116, read-out: IC50 (HCT116)) it was 283 nM.

For the compound `CCc1c2c(nc3ccc(O)c(CN(C)C)c13)-c1cc3c(c(=O)n1C2)COC(=O)C3(CC)OC(=O)COc1ccc(C(=O)OC2c3cc4c(cc3C(c3cc(OC)c(OC)c(OC)c3)[C@H]3C(=O)OC[C@@H]23)OCO4)cc1` (some centres unmarked) [Compound N4], the IC50 was determined as 12.9 nM in data set [6] (setting [10]), 5 nM in data set [7] (setting [11]) and 6.6 nM in [8] (setting [12]). Further, the MTD in the data set “in vivo” was determined as 250 mg/kg.

Take `CCc1c2c(nc3ccc(OC(=O)N4CCC(N5CCCCC5)CC4)cc13)-c1cc3c(c(=O)n1C2)COC(=O)[C@]3(O)CC` [Irinotecan]: the tumour growth inhibition (TGI) is recorded as 92% in [2] (70 mg/kg i.p. q3d x 3) and 97% in data set [5] (70 mg/kg i.p. q3d x 3, day 29). In addition, in data set [2] (HCT116 model, during the treatment period), the body weight loss turned out to be 8%.

Take `CCC1(OC(=O)COc2ccc(C(=O)OC3c4cc5c(cc4C(c4cc(OC)c(OC)c(OC)c4)C4C(=O)OCC34)OCO5)cc2)C(=O)OCc2c1cc1n(c2=O)Cc2cc3c(CN(C)C)c(O)ccc3nc2-1.Cl` (centres unmarked) [N1 HCL Salt]: the “MTD Values” in data set [1] was determined as 120 mg/kg.

As for `CCc1c2c(nc3ccc(OC(=O)N4CCC(N5CCCCC5)CC4)cc13)-c1cc3c(c(=O)n1C2)COC(=O)C3(CC)OC(=O)COc1ccc(C(=O)OC2c3cc4c(cc3C(c3cc(OC)c(OC)c(OC)c3)C3C(=O)OCC23)OCO4)cc1.Cl` (centres unmarked) [N3 HCL Salt], the “MTD Values” in data set [1] is 144 mg/kg.

Regarding `CCc1c2c(nc3ccc(O)c(CN(C)C)c13)-c1cc3c(c(=O)n1C2)COC(=O)C3(CC)OC(=O)COc1ccc(C(=O)OC2c3cc4c(cc3C(c3cc(OC)c(OC)c(OC)c3)C3C(=O)OCC23)OCO4)cc1.Cl` (centres unmarked) [N4 HCL Salt], in data set [1], the “MTD Values” is 180 mg/kg.

As usually defined, the TGI is how far tumour growth fell short of that in controls. High values mean much slowing of growth, low ones little slowing of growth. As usually defined, the IC50 is the point on the concentration scale where inhibition reaches its midpoint.
